2 compounds from US11648239B2, “Azophenols as ERG oncogene inhibitors” (The Henry M. Jackson Foundation for the Advancement of …, priority 2015, dated 2023) can be followed below.

What all share (assay type): cell-based
In one data set the target is T1, ERG protein (Homo sapiens, UniProt P11308).
T1 construct: host or cells: VCaP
T1 sequence (P11308 33-479 limits assumed): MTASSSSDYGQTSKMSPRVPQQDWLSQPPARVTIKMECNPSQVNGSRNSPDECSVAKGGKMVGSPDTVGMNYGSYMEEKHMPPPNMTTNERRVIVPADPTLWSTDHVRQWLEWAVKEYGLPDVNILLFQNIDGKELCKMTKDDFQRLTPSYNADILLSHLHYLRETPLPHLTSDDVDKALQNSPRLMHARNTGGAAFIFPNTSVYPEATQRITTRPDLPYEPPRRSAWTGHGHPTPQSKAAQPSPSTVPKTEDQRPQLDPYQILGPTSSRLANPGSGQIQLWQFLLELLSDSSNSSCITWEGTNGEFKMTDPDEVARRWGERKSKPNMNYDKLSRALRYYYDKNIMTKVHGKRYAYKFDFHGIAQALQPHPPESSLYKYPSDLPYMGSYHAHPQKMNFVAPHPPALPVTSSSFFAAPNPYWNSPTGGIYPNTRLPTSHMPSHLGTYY
As to the kind of experiment: Inhibition of ERG protein in VCaP cells (Western blot). To be noted: for inhibition of ERG protein in VCaP cells: 0.1, 0.2, 0.4, 0.6, 0.8 and 1 μM, FIG. 13, 16; for inhibition of endogenous ERG protein: VCaP, 0.25 μM and 1 μM, FIG. 2. On the procedure: The TMPRSS2-ERG fusion positive prostate cancer cell line, VCaP (ATCC), was used to identify the test compound inhibitors of ERG expression. Cells were grown in medium using conditions prescribed by the vendor. VCaP cells in logarithmic growth were seeded in a tissue culture dish at a cell density of 2×10^6 cells per plate. Following 48 hours incubation at 37° C., cells were exposed for a period of 48 hours with 0, 0.05, 0.25 and 0.5 μM concentrations of each test azophenol compound. The inhibition of ERG expression was evaluated by an In-cell Western blot assay (LI-COR Biosciences, Lincoln, Nebr.) using the ERG specific CPDR ERG-MAb as further described below.
(§1) Inhibition of ERG protein expression by the test compounds were determined by Western blot analysis. The ERG specific monoclonal antibody CPDR ERG-MAb was used as the primary antibody. In brief, Western blot was performed by running a fixed amount of total protein extracted from cell lysates of the treated cells using (4-12% Bis-Tris) gel by electrophoresis, followed by transfer to membrane and incubation with primary antibody and continued with HRP-conjugated secondary antibody. Cultured cells were treated at specific dosages with each of the tested ERG inhibitors. Following incubation of the treated cells for an indicated time period, cells were lysed using Mammalian Protein Extraction Reagent (M-PER; Pierce, Rockford, Ill.) containing a protease inhibitor cocktail and phosphatase inhibitor cocktails I & III (Sigma, St Louis, Mo.). Cell lysates containing 50 μg of total protein were electrophoresed through 4-12% Bis-Tris Gel (Invitrogen, Carlsbad, Calif.) and the cellular proteins were transferred to PVDF membrane (Invitrogen, Carlsbad, Calif.). Membranes were incubated at 4° C. for 12 hours with primary antibodies for AR, PSA, GAPDH, α-Tubulin, apoptosis markers and cell cycle regulators. Following exposure to primary antibodies, the membranes were washed with buffer (3×, 5 minutes each at room temperature) followed by incubation with relevant secondary antibodies for 1 hour at 24° C. Finally, the membranes were washed with buffer and developed using the ECL Western blot detection reagent (GE Health Care, Buckinghamshire, UK). The ERG protein expression of the test azophenol compounds were normalized with GAPDH.
In brief, ERG positive VCaP cells in loganthmic growth phase were plated in 10 cm tissue culture dish at a cell density of 2×10^6 cells per dish. The plated cells were treated with 0, 0.2, 0.4, 0.6, 0.8 and 1 μM concentrations of each azophenol compound for a period of 48 hours. Cells from each dish were then processed for Western blot analysis and alterations in the expression of ERG protein were monitored. Both ERG and GAPDH protein band were quantified from each concentration using Image J (NIH) and ERG band density was normalized with corresponding GAPDH protein control. Relative density of ERG in each concentration was calculated and with Graphpad Prism 6 software, the IC50 of each compound was calculated.
Background: Immunoblotting shows a protein as a band on a membrane.

In the next data set the test system is VCaP cells. Put plainly: VCaP cell growth inhibition. Conditions: for inhibition of VCaP cell growth: 0.1, 0.2, 0.4, 0.6, 0.8 and 1 μM, FIG. 15, 18; for inhibition of the growth of ERG harboring prostate cancer cells: VCaP, 0.25 μM and 1 μM, FIG. 3. On the procedure:
(§2) Approximately 48 hours following plating of cells, the appropriate test compound is added to each well of the tissue culture dish at a predetermined concentration. The medium was replenished every 24 hours with fresh growth medium containing the same concentration of the same test compound for indicated period of the cell growth inhibition assay. Percent cell growth inhibition was calculated using a hemocytometer for estimating cell density in each of the test wells of the tissue culture dish and trypan blue dye exclusion microscopy and photography to estimate the fraction of viable cells in each test well.
To investigate whether the azophenol compounds selectively arrested the growth of ERG positive cancer cells (VCaP), VCaP cells were cultured to achieve cells in logarithmic growth and these cells were then plated in 6 well tissue culture dishes in duplicates at a cell density of 0.2×10^6 cells per well. The plated cells were exposed to 0, 0.2, 0.4, 0.6, 0.8 and 1 μM concentrations of each compound for a period of 8 days. At the end of time period, cells were recovered from the test plate, washed, trypsinized and the cell density of viable cells were determined with trypan blue dye staining method and automated cell counter Bio-Rad TC10. The IC50 of cell growth inhibition of each compound was determined by trypsinizing the cells at the end of the experiment and counting the cells by using the automated cell counter (Bio-Rad TC10 automated cell counter). The average cell numbers of each concentration were used to calculate the IC50 of each compound with the GraphPad Prism 6 software.

In another data set the test system is AR. As to the kind of experiment: Inhibition of endogenous AR protein in VCaP cells (Western blot). Conditions: 0.25 μM and 1 μM, FIG. 2. On the procedure: as §1, with “Following exposure to primary antibodies, the membranes were washed with buffer (3×, 5 minutes each at room temperature) followed by incubation with relevant secondary antibodies for 1 hour at 24° C. Finally, the membranes were washed with buffer and developed using the ECL Western blot detection reagent (GE Health Care, Buckinghamshire, UK). The ERG protein expression of the test azophenol compounds were normalized with GAPDH.” left out

The subject of data set [1] is PSA. As to the kind of experiment: Inhibition of endogenous PSA protein in VCaP cells (Western blot). Conditions: 0.25 μM and 1 μM, FIG. 2. On the procedure:
as §1, with “Following exposure to primary antibodies, the membranes were washed with buffer (3×, 5 minutes each at room temperature) followed by incubation with relevant secondary antibodies for 1 hour at 24° C. Finally, the membranes were washed with buffer and developed using the ECL Western blot detection reagent (GE Health Care, Buckinghamshire, UK). The ERG protein expression of the test azophenol compounds were normalized with GAPDH.” left out

In data set [2] the test system is PSA. Put plainly: Inhibition of endogenous PSA protein in LNCaP cells (Western blot). Conditions: ERG negative LNCaP; 0.25 μM and 1 μM; FIG. 4. On the procedure:
To investigate whether the azophenol compounds of the invention are selective inhibitors of ERG protein expression, representative azophenol compounds were further tested for its ability to inhibit AR and PSA activity in the following AR positive/ERG negative prostate cancer cell lines: LNCaP (mutant AR positive and ERG negative), as well as in LAPC4 cells that are AR (wild type) positive and ERG negative.
Inhibition of ERG protein expression by the test compounds were determined by Western blot analysis. The ERG specific monoclonal antibody CPDR ERG-MAb was used as the primary antibody. In brief, Western blot was performed by running a fixed amount of total protein extracted from cell lysates of the treated cells using (4-12% Bis-Tris) gel by electrophoresis, followed by transfer to membrane and incubation with primary antibody and continued with HRP-conjugated secondary antibody. Cultured cells were treated at specific dosages with each of the tested ERG inhibitors. Following incubation of the treated cells for an indicated time period, cells were lysed using Mammalian Protein Extraction Reagent (M-PER; Pierce, Rockford, Ill.) containing a protease inhibitor cocktail and phosphatase inhibitor cocktails I & III (Sigma, St Louis, Mo.). […]

Another data set deals with LNCaP cells. As to the kind of experiment: LNCaP cell growth. To be noted: 0.25 μM and 1 μM, FIG. 5. The protocol: as §2
A further data set deals with LAPC-4 cells. As to the kind of experiment: LAPC-4 cell growth. To be noted: 0.25 μM and 1 μM, FIG. 7. On the procedure:
as §2

The target in data set [3] is T2, RIOK2 protein (Homo sapiens, UniProt Q9BVS4). Put plainly: Inhibition of endogenous RIOK2 protein in COLO320 cells (Western blot). Conditions: 0.25 μM and 1 μM, FIG. 8.
T2 sequence (Q9BVS4 whole entry): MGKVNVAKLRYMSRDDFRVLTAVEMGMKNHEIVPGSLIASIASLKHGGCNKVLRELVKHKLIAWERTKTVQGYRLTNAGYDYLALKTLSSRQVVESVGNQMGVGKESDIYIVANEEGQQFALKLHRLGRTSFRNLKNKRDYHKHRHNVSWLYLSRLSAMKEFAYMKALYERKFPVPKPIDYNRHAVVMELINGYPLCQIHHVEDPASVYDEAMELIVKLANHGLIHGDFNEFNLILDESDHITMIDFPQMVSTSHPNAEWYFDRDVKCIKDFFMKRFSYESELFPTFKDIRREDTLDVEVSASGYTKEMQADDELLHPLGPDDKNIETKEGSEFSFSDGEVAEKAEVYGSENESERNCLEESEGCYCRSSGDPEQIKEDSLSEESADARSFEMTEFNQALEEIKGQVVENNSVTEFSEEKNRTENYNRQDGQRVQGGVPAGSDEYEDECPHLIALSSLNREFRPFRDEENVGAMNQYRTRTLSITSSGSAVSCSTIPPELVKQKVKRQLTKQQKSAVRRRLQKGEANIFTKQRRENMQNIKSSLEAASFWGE
Data set [4] addresses T2, RIOK2 protein. Put plainly: Inhibition of RIOK2 protein in VCaP cells (Western blot). Details: host or cells: VCaP. Conditions: 0.1, 0.2, 0.4, 0.6, 0.8 and 1 μM; FIG. 14, 17.

With `Cc1ccc(O)c(N=Nc2nccs2)c1` [Compound 2], at ERG protein, the “inhibition of ERG protein in VCaP cells” value is given as “inhibition” and the “inhibition of endogenous ERG protein” value is “inhibition”. Further, in the data set with VCaP cells, the “inhibition of VCaP cell growth” value is “inhibition” and the “inhibition of the growth of ERG harboring prostate cancer cells” value is recorded as “inhibition”. For the same compound, in the data set on AR, the “inhibition of endogenous AR protein” value is “inhibition”. Also, in the data set with PSA [1], the “inhibition of endogenous PSA protein” value is “inhibition”. In the data set with PSA [2], the “inhibition of endogenous PSA protein” value is recorded as “lack of inhibition”. Besides, in the data set with LNCaP cells, the “growth of ERG negative prostate cancer cells” value is given as “do not affect the growth”. Besides, in the data set with LAPC-4 cells, the “growth of ERG negative prostate cancer cells” value is recorded as “do not affect the growth”. Further, the “inhibition of endogenous RIOK2 protein” value against RIOK2 protein [3] is recorded as “inhibition”. The “inhibition of RIOK2 protein in VCaP cells” value at RIOK2 protein [4] is “inhibition”.

Regarding `CC(C)c1ccc(O)c(N=Nc2nccs2)c1` [Compound 1], on ERG protein, the “inhibition of ERG protein in VCaP cells” value is “inhibition” and the “inhibition of endogenous ERG protein” value was “inhibition”. Moreover, in the data set on VCaP cells, the “inhibition of VCaP cell growth” value was “inhibition” and the “inhibition of the growth of ERG harboring prostate cancer cells” value is “inhibition”. In addition, the “inhibition of endogenous AR protein” value with AR is on record as “inhibition”. In addition, the “inhibition of endogenous PSA protein” value in the data set on PSA [1] is recorded as “inhibition”. The “inhibition of endogenous PSA protein” value with PSA [2] is reported as “lack of inhibition”. The “growth of ERG negative prostate cancer cells” value in the data set with LNCaP cells is “do not affect the growth”. For the same compound, the “growth of ERG negative prostate cancer cells” value with LAPC-4 cells is reported as “do not affect the growth”. On RIOK2 protein [3], the “inhibition of endogenous RIOK2 protein” value is on record as “inhibition”. Also, the “inhibition of RIOK2 protein in VCaP cells” value against RIOK2 protein [4] is “inhibition”.
